Experimental findings from US20090203726A1, “SUBSTITUTED TETRAHYDROQUINOLINES AS ANTIBACTERIAL AGENTS” (priority 2007, published 2009) are described below.

In one assay the target is T1, MurA (EPT E coli) (Escherichia coli, UniProt P0A749).
T1 construct: made in house
Briefly: Kinetic IC50 assay of MurA inhibition (Malachite Green), EPT E coli. Format: biochemical.

Another assay addresses MurA (EPT Y pestis) (Yersinia pestis, UniProt Q8ZB56). Briefly: biochemical.
Where [1] appears, read: MurA enzyme, E coli, values given as ranges, read-out: IC50 EPT E coli.

Read-outs that look alike come from different tables or passages of the source.

MurA (EPT Y pestis), sequence (Q8ZB56 whole entry, looked up): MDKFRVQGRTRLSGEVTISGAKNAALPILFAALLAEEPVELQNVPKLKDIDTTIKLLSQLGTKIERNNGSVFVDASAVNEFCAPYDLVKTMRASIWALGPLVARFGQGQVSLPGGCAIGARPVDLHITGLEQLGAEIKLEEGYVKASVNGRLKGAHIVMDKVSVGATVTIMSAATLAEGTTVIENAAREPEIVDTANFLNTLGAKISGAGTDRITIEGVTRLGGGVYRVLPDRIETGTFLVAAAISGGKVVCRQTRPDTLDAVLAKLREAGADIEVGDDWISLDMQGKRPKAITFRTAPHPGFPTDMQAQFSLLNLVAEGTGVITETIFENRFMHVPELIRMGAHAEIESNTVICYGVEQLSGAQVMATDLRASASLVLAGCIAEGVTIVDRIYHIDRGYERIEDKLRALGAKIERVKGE
T1 sequence (P0A749 whole entry): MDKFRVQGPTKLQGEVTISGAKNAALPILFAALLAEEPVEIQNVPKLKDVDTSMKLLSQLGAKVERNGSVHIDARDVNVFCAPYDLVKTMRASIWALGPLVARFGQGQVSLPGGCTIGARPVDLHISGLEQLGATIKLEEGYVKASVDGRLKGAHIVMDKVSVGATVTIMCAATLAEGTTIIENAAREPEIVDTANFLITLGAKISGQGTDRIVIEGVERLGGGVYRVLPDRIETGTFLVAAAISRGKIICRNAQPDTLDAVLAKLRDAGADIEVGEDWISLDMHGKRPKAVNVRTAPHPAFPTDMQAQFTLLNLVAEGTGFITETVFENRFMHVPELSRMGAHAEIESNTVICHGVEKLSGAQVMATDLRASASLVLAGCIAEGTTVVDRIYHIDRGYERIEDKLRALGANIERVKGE

With `O=C(O)C1Nc2ccc(F)cc2C2C=CCC12` (stereo not drawn) [Compound 1], the figures for the IC50 at MurA (EPT E coli) (setting [1]) and on MurA (EPT Y pestis) were 5 to 20 µM and 20 to 40 µM, respectively. The matching figures for `O=C(O)C1Nc2ccc(F)c(Cl)c2C2C=CCC12` (stereo not drawn) [Compound 2]: over 200 µM and 10 to 30 µM.

With `O=C(O)c1ccc2c(c1)C1C=CCC1C(C(=O)O)N2` (stereo not drawn) [Compound 3], the IC50 was in the range of 2 to 40 µM on MurA (EPT E coli) (setting [1]) and 10 to 30 µM against MurA (EPT Y pestis). Take `CN(C)C(=O)c1cccc2c1NC(C(=O)O)C1CC=CC21` (stereo not drawn) [Compound 4]: the IC50 on MurA (EPT E coli) (setting [1]) is over 200 µM; at MurA (EPT Y pestis), 80 to 120 µM. As for `O=C(O)C1Nc2cc(C(F)(F)F)ccc2C2C=CCC12` (stereo not drawn) [Compound 5], the IC50 on MurA (EPT E coli) (setting [1]) fell in the range of 150 to 200 µM; against MurA (EPT Y pestis), 10 to 30 µM. `CC(=O)Nc1ccc2c(c1)C1C=CCC1C(C(=O)O)N2` (stereo not drawn) [Compound 6]: the IC50 is over 200 µM on MurA (EPT E coli) (setting [1]) and 50 to 100 µM against MurA (EPT Y pestis).

`NC(=O)c1cccc2c1NC(C(=O)O)C1CC=CC21` (stereo not drawn) [Compound 7]: the values for the IC50 on MurA (EPT E coli) (setting [1]) and on MurA (EPT Y pestis) were 5 to 20 µM and 20 to 40 µM, respectively. As for `CCOC(=O)C1Nc2c(C(=O)Nc3ccccc3)cccc2C2C=CCC12` (stereo not drawn) [Compound 8], the IC50 on MurA (EPT E coli) (setting [1]) is over 200 µM.

Regarding `O=C(Nc1ccccc1)c1cccc2c1NC(C(=O)O)C1CC=CC21` (stereo not drawn) [Compound 9], the IC50 at MurA (EPT E coli) (setting [1]) was over 200 µM. On the same count and under the same terms, next, `O=C(O)C1Nc2c(C(=O)N3CCN(c4ccccc4)CC3)cccc2C2C=CCC12` (stereo not drawn) [Compound 10]: over 200 µM; `CCOC(=O)C1Nc2c(C(=O)Oc3ccc(-c4ccc(C#N)cc4)cc3)cccc2C2C=CCC12` (stereo not drawn) [Compound 11]: over 200 µM; `CCOC(=O)C1Nc2c(C(=O)Oc3ccc(-c4cccc(C#N)c4)cc3)cccc2C2C=CCC12` (stereo not drawn) [Compound 12]: over 200 µM. Still for that read-out and setting: the value for `O=C(Nc1ccc(Cl)cc1)c1cccc2c1NC(C(=O)O)C1CC=CC21` (stereo not drawn) [Compound 13] was over 200 µM. Turning to `COc1ccc(NC(=O)c2cccc3c2NC(C(=O)O)C2CC=CC32)cc1` (stereo not drawn) [Compound 14], the IC50 on MurA (EPT E coli) (setting [1]) is over 200 µM. In the case of `O=C(Nc1ccc(-c2ccccc2)cc1)c1cccc2c1NC(C(=O)O)C1CC=CC21` (stereo not drawn) [Compound 15], the IC50 on MurA (EPT E coli) (setting [1]) lay in the range of 50 to 100 µM. As to `O=C(Oc1ccc(-c2ccccc2)cc1Cl)c1cccc2c1NC(C(=O)O)C1CC=CC21` (stereo not drawn) [Compound 21], the IC50 at MurA (EPT E coli) (setting [1]) fell in the range of 30 to 50 µM; against MurA (EPT Y pestis), 5 to 15 µM. For the compound `O=C(Oc1ccc(-c2ccccc2)cc1Cl)c1cccc2c1NC(C(=O)O)C1CC3OC3C21` (stereo not drawn) [Compound 22], the IC50 lay in the range of 40 to 60 µM at MurA (EPT E coli) (setting [1]) and 10 to 30 µM against MurA (EPT Y pestis). `O=C(Oc1ccc(-c2ccccc2)cc1[N+](=O)[O-])c1cccc2c1NC(C(=O)O)C1CC=CC21` (stereo not drawn) [Compound 23]: the IC50 was 30 to 50 µM at MurA (EPT E coli) and 10 to 20 µM on MurA (EPT Y pestis).

Take `N#Cc1ccc(-c2ccc(OC(=O)c3cccc4c3NC(C(=O)O)C3CC=CC43)cc2)cc1` (stereo not drawn) [Compound 24]: the IC50 at MurA (EPT E coli) (setting [1]) is 40 to 60 µM; against MurA (EPT Y pestis), 20 to 30 µM. In the case of `O=C(O)C1Nc2c(COc3ccccc3)cccc2C2C=CCC12` (stereo not drawn) [Compound 25], the 50% inhibitory concentration (IC50) on MurA (EPT E coli) (setting [1]) was over 200 µM. With `CC(C)(C)c1ccc(OCc2cccc3c2NC(C(=O)O)C2CC=CC32)cc1` (stereo not drawn) [Compound 26], the IC50 on MurA (EPT E coli) (setting [1]) is over 200 µM. Still for that read-out and setting: next, `O=C(O)C1Nc2c(COc3ccc(Cl)cc3)cccc2C2C=CCC12` (stereo not drawn) [Compound 27]: over 200 µM.

Turning to `Cc1ccc(OCc2cccc3c2NC(C(=O)O)C2CC=CC32)cc1` (stereo not drawn) [Compound 28], the IC50 on MurA (EPT E coli) (setting [1]) is over 200 µM. As for `O=C(O)C1Nc2c(OCc3ccccc3)cccc2C2C=CCC12` (stereo not drawn) [Compound 29], the IC50 on MurA (EPT E coli) (setting [1]) was over 200 µM. As for `Cc1ccc(COc2cccc3c2NC(C(=O)O)C2CC=CC32)cc1` (stereo not drawn) [Compound 30], on MurA (EPT E coli) (setting [1]), the IC50 was over 200 µM. For `O=C(Oc1ccc(-c2ccc(O)cc2)cc1)c1cccc2c1NC(C(=O)O)C1CC=CC21` (stereo not drawn) [Compound 31], the figures for the half-inhibitory concentration (IC50) on MurA (EPT E coli) (setting [1]) and against MurA (EPT Y pestis) were 90 to 110 µM and 20 to 40 µM, respectively. The matching figures for `COc1ccc(-c2ccc(OC(=O)c3cccc4c3NC(C(=O)O)C3CC=CC43)cc2)cc1` (stereo not drawn) [Compound 32]: 40 to 60 µM and 15 to 25 µM. As to `O=C(Oc1ccc(-c2ccc([N+](=O)[O-])cc2)cc1)c1cccc2c1NC(C(=O)O)C1CC=CC21` (stereo not drawn) [Compound 33], the IC50 was in the range of 40 to 60 µM at MurA (EPT E coli) (setting [1]) and 10 to 20 µM at MurA (EPT Y pestis). The matching figures for `O=C(Oc1ccc(-c2ccc(Cl)cc2)cc1)c1cccc2c1NC(C(=O)O)C1CC=CC21` (stereo not drawn) [Compound 34]: 60 to 80 µM and 1 to 10 µM.

With `CN(C)C(=O)c1ccc(-c2ccc(OC(=O)c3cccc4c3NC(C(=O)O)C3CC=CC43)cc2)cc1` (stereo not drawn) [Compound 35], the IC50 on MurA (EPT E coli) (setting [1]) is over 200 µM. Same read-out and setting: the value for `O=C(O)C1Nc2c(COc3ccc(-c4ccccc4)cc3)cccc2C2C=CCC12` (stereo not drawn) [Compound 36] was over 200 µM; that for `N#Cc1cc(COc2cccc3c2NC(C(=O)O)C2CC=CC32)ccc1-c1ccccc1` (stereo not drawn) [Compound 37] was over 200 µM. As to `COc1ccc(-c2ccc(COc3cccc4c3NC(C(=O)O)C3CC=CC43)cc2)cc1` (stereo not drawn) [Compound 38], the IC50 at MurA (EPT E coli) (setting [1]) was over 200 µM. Regarding `O=C(Oc1ccc(Oc2ccccc2)cc1)c1cccc2c1NC(C(=O)O)C1CC=CC21` (stereo not drawn) [Compound 39], the IC50 at MurA (EPT E coli) (setting [1]) was in the range of 50 to 70 µM; at MurA (EPT Y pestis), 10 to 30 µM. Regarding `O=C(Oc1ccc(-c2ccccc2)cc1)c1cc(Cl)cc2c1NC(C(=O)O)C1CC=CC21` (stereo not drawn) [Compound 40], the IC50 at MurA (EPT E coli) (setting [1]) is 30 to 50 µM; against MurA (EPT Y pestis), 5 to 15 µM. For `O=C(c1ccccc1)c1ccc(OC(=O)c2cccc3c2NC(C(=O)O)C2CC=CC32)cc1` (stereo not drawn) [Compound 41], the IC50 was in the range of 120 to 140 µM on MurA (EPT E coli) (setting [1]) and 70 to 80 µM on MurA (EPT Y pestis). As to `CC(=O)N(c1ccccc1)c1ccc(OC(=O)c2cccc3c2NC(C(=O)O)C2CC=CC32)cc1` (stereo not drawn) [Compound 42], the IC50 on MurA (EPT E coli) (setting [1]) lay within 40 to 60 µM. In the case of `O=C(Oc1ccccc1)c1cccc2c1NC(C(=O)O)C1CC=CC21` (stereo not drawn) [Compound 43], on MurA (EPT E coli) (setting [1]), the IC50 was 30 to 50 µM.

For `Cc1ccc(OC(=O)c2cccc3c2NC(C(=O)O)C2CC=CC32)cc1` (stereo not drawn) [Compound 44], the IC50 at MurA (EPT E coli) (setting [1]) lay within 1 to 10 µM; against MurA (EPT Y pestis) it was 1 to 5 µM. `O=C(Oc1ccc(Cl)cc1)c1cccc2c1NC(C(=O)O)C1CC=CC21` (stereo not drawn) [Compound 45]: the IC50 on MurA (EPT E coli) (setting [1]) was 160 to 180 µM. The same measure, in the same setting: the value for `COc1ccc(OC(=O)c2cccc3c2NC(C(=O)O)C2CC=CC32)cc1` (stereo not drawn) [Compound 46] was 1 to 10 µM. In the case of `CC(C)(C)c1ccc(OC(=O)c2cccc3c2NC(C(=O)O)C2CC=CC32)cc1` (stereo not drawn) [Compound 47], the IC50 is 10 to 20 µM on MurA (EPT E coli) (setting [1]) and 5 to 15 µM against MurA (EPT Y pestis).

In the case of `O=C(Oc1ccc([N+](=O)[O-])cc1)c1cccc2c1NC(C(=O)O)C1CC=CC21` (stereo not drawn) [Compound 48], the IC50 at MurA (EPT E coli) lay within 180 to 200 µM. On to `O=C(Oc1cc(Cl)cc(Cl)c1)c1cccc2c1NC(C(=O)O)C1CC=CC21` (stereo not drawn) [Compound 49], for which the figures for the IC50 on MurA (EPT E coli) (setting [1]) and on MurA (EPT Y pestis) were 30 to 50 µM and 1 to 10 µM, respectively. In the case of `COc1ccc(-c2ccc(N(Cc3cccc4c3NC(C(=O)O)C3CC=CC43)C(C)=O)cc2)cc1` (stereo not drawn) [Compound 50], at MurA (EPT E coli) (setting [1]), the IC50 was in the range of 150 to 170 µM.
